From ChEMBL document CHEMBL1135741, “Synthesis and biological evaluation of analogues of the peptaibol ampullosporin A” (J Med Chem, 2002)
Where a SMILES comes first, the peptide text is derived from it. [ ]: non-standard residue; d: D form. ξ: configuration not given here. Oic(3aξ,7aξ) = O=C(O)[C@@H]1CC2CCCCC2N1; 2Nal = N[C@@H](Cc1ccc2ccccc2c1)C(=O)O; Igl = N[C@H](C(=O)O)C1Cc2ccccc2C1; Tic = O=C(O)[C@@H]1Cc2ccccc2CN1; Leu(ol) = CC(C)C[C@H](N)CO; Aib = CC(C)(N)C(=O)O

Columns and labels:
Mus musculus = organism: Mus musculus; assay: Evaluated for its ability to modify the core body temperature of mice; No activity; assay type: functional, organism-based
[1] = system: Remotididymella destructiva; assay: Evaluated for pigment induction capacity based on the Phoma destructiva halo color; No activity; assay type: functional, organism-based

CC[C@@H](C)[C@H](NC(=O)[C@H](CC(C)C)NC(=O)[C@@H](NC(=O)[C@@H](NC(=O)[C@H](C)NC(=O)[C@H](Cc1c[nH]c2ccccc12)NC(C)=O)[C@@H](C)CC)[C@H](C)CC)C(=O)N[C@@H](CCC(N)=O)C(=O)N[C@H](C(=O)N[C@H](C(=O)N[C@H](C(=O)N[C@@H](CCC(N)=O)C(=O)N[C@@H](CC(C)C)C(=O)N[C@H](C(=O)N[C@@H](CCC(N)=O)C(=O)N[C@H](CO)CC(C)C)[C@@H](C)CC)[C@H](C)CC)[C@@H](C)CC)[C@H](C)CC
NA (Mus musculus): No activity
NA [1]: No activity

CC(=O)N[C@@H](C)C(=O)NC(C)(C)C(=O)NC(C)(C)C(=O)N[C@@H](CC(C)C)C(=O)NC(C)(C)C(=O)N[C@@H](CCC(N)=O)C(=O)NC(C)(C)C(=O)NC(C)(C)C(=O)NC(C)(C)C(=O)N[C@@H](CCC(N)=O)C(=O)N[C@@H](CC(C)C)C(=O)NC(C)(C)C(=O)N[C@@H](CCC(N)=O)C(=O)N[C@H](CO)CC(C)C (Ac-A[Aib][Aib]L[Aib]Q[Aib][Aib][Aib]QL[Aib]Q[Leu(ol)])
NA (Mus musculus): No activity
NA [1]: No activity

CC(=O)N[C@@H](Cc1c[nH]c2ccccc12)C(=O)N[C@@H](C)C(=O)N[C@@H](C)C(=O)N[C@@H](C)C(=O)N[C@@H](CC(C)C)C(=O)N[C@@H](C)C(=O)N[C@@H](CCC(N)=O)C(=O)N[C@@H](C)C(=O)N[C@@H](C)C(=O)N[C@@H](C)C(=O)N[C@@H](CCC(N)=O)C(=O)N[C@@H](CC(C)C)C(=O)N[C@@H](C)C(=O)N[C@@H](CCC(N)=O)C(=O)N[C@H](CO)CC(C)C (Ac-WAAALAQAAAQLAQ[Leu(ol)])
NA (Mus musculus): No activity
NA [1]: No activity

CC(=O)N[C@@H](Cc1c[nH]c2ccccc12)C(=O)N[C@@H](C)C(=O)NC(C)(C)C(=O)NC(C)(C)C(=O)N[C@@H](CC(C)C)C(=O)N[C@@H](C)C(=O)N[C@@H](CCC(N)=O)C(=O)NC(C)(C)C(=O)NC(C)(C)C(=O)NC(C)(C)C(=O)N[C@@H](CCC(N)=O)C(=O)N[C@@H](CC(C)C)C(=O)NC(C)(C)C(=O)N[C@@H](CCC(N)=O)C(=O)N[C@H](CO)CC(C)C (Ac-WA[Aib][Aib]LAQ[Aib][Aib][Aib]QL[Aib]Q[Leu(ol)])
NA (Mus musculus): No activity

CC(=O)N[C@@H](Cc1c[nH]c2ccccc12)C(=O)N[C@@H](C)C(=O)NC(C)(C)C(=O)NC(C)(C)C(=O)N[C@@H](CC(C)C)C(=O)NC(C)(C)C(=O)N[C@@H](CCC(N)=O)C(=O)NC(C)(C)C(=O)NC(C)(C)C(=O)NC(C)(C)C(=O)N[C@@H](CCC(N)=O)C(=O)N[C@@H](CC(C)C)C(=O)NC(C)(C)C(=O)N[C@@H](CCC(N)=O)C(=O)O (Ac-WA[Aib][Aib]L[Aib]Q[Aib][Aib][Aib]QL[Aib]Q-OH)
NA (Mus musculus): No activity
NA [1]: No activity

CC(=O)N[C@@H](Cc1ccc2ccccc2c1)C(=O)N[C@@H](C)C(=O)NC(C)(C)C(=O)NC(C)(C)C(=O)N[C@@H](CC(C)C)C(=O)NC(C)(C)C(=O)N[C@@H](CCC(N)=O)C(=O)NC(C)(C)C(=O)NC(C)(C)C(=O)NC(C)(C)C(=O)N[C@@H](CCC(N)=O)C(=O)N[C@@H](CC(C)C)C(=O)NC(C)(C)C(=O)N[C@@H](CCC(N)=O)C(=O)N[C@H](CO)CC(C)C (Ac-[2Nal]A[Aib][Aib]L[Aib]Q[Aib][Aib][Aib]QL[Aib]Q[Leu(ol)])
NA (Mus musculus): No activity

CC(=O)N[C@H](C(=O)N[C@@H](C)C(=O)NC(C)(C)C(=O)NC(C)(C)C(=O)N[C@@H](CC(C)C)C(=O)NC(C)(C)C(=O)N[C@@H](CCC(N)=O)C(=O)NC(C)(C)C(=O)NC(C)(C)C(=O)NC(C)(C)C(=O)N[C@@H](CCC(N)=O)C(=O)N[C@@H](CC(C)C)C(=O)NC(C)(C)C(=O)N[C@@H](CCC(N)=O)C(=O)N[C@H](CO)CC(C)C)C1Cc2ccccc2C1 (Ac-[Igl]A[Aib][Aib]L[Aib]Q[Aib][Aib][Aib]QL[Aib]Q[Leu(ol)])
NA (Mus musculus): No activity

CC(=O)N1C2CCCCC2C[C@H]1C(=O)N[C@@H](C)C(=O)NC(C)(C)C(=O)NC(C)(C)C(=O)N[C@@H](CC(C)C)C(=O)NC(C)(C)C(=O)N[C@@H](CCC(N)=O)C(=O)NC(C)(C)C(=O)NC(C)(C)C(=O)NC(C)(C)C(=O)N[C@@H](CCC(N)=O)C(=O)N[C@@H](CC(C)C)C(=O)NC(C)(C)C(=O)N[C@@H](CCC(N)=O)C(=O)N[C@H](CO)CC(C)C (some centres not stated) (Ac-[Oic(3aξ,7aξ)]A[Aib][Aib]L[Aib]Q[Aib][Aib][Aib]QL[Aib]Q[Leu(ol)])
NA (Mus musculus): No activity
NA [1]: No activity

CC(=O)N1Cc2ccccc2C[C@H]1C(=O)N[C@@H](C)C(=O)NC(C)(C)C(=O)NC(C)(C)C(=O)N[C@@H](CC(C)C)C(=O)NC(C)(C)C(=O)N[C@@H](CCC(N)=O)C(=O)NC(C)(C)C(=O)NC(C)(C)C(=O)NC(C)(C)C(=O)N[C@@H](CCC(N)=O)C(=O)N[C@@H](CC(C)C)C(=O)NC(C)(C)C(=O)N[C@@H](CCC(N)=O)C(=O)N[C@H](CO)CC(C)C (Ac-[Tic]A[Aib][Aib]L[Aib]Q[Aib][Aib][Aib]QL[Aib]Q[Leu(ol)])
NA (Mus musculus): No activity

CC(C)C[C@@H](CO)NC(=O)[C@H](CCC(N)=O)NC(=O)C(C)(C)NC(=O)[C@H](CC(C)C)NC(=O)[C@H](CCC(N)=O)NC(=O)C(C)(C)NC(=O)C(C)(C)NC(=O)C(C)(C)NC(=O)[C@H](CCC(N)=O)NC(=O)C(C)(C)NC(=O)[C@H](CC(C)C)NC(=O)C(C)(C)NC(=O)C(C)(C)NC(=O)[C@H](C)N (H-A[Aib][Aib]L[Aib]Q[Aib][Aib][Aib]QL[Aib]Q[Leu(ol)])
NA (Mus musculus): No activity
NA [1]: No activity

CC(C)C[C@@H](CO)NC(=O)[C@H](CCC(N)=O)NC(=O)C(C)(C)NC(=O)[C@H](CC(C)C)NC(=O)[C@H](CCC(N)=O)NC(=O)C(C)(C)NC(=O)C(C)(C)NC(=O)C(C)(C)NC(=O)[C@H](CCC(N)=O)NC(=O)C(C)(C)NC(=O)[C@H](CC(C)C)NC(=O)C(C)(C)NC(=O)C(C)(C)NC(=O)[C@H](C)NC(=O)[C@@H](N)Cc1c[nH]c2ccccc12 (H-WA[Aib][Aib]L[Aib]Q[Aib][Aib][Aib]QL[Aib]Q[Leu(ol)])
NA (Mus musculus): No activity
